Laboratory results as given in US9139812B2, “CD49F promoting proliferation, multipotency and reprogramming of adult stem cells through PI3K/AKT/GSK3 pathway” (KANG STEM HOLDINGS CO., LTD, priority 2010, dated 2015).
Entries after “also recorded” stand apart in the source; their conditions may differ.

Assays:
Type in all cases: cell-based, human
[1] = system: adult stem cell spheres; experiment: Formation of adult stem cell (MSC) spheres with GSK3 or PI3K inhibitor; settings: after 7 days; BIO 0.2 μM to 0.5 μM; LY294002 30 μM to 50 μM
Method: To form adult stem cell spheres with preventing the adhesion of cells to the bottom of plastic container, 100 mm culture plate coated with 1% agarose (Nunc, Rochester, N.Y.) was used, and 1.5×10^5 adult stem cells were incubated in the growth medium as described in Preparation 1. A total of 15,000 cells were seeded per 1 ml of the medium, and adult stem cell spheres were incubated for one week. To prevent cell loss the culture solution was partially replaced only two times per week. After 7 days, adult stem cell spheres were collected by means of 40 μm pore cell strainer. Adult stem cell spheres as collected were washed with PBS, and gently centrifuged (800 rpm/5 min) for supplementary experiments.
To identify the influence of GSK3 and PI3K signal transduction on sphere formation the inhibitory experiment was practiced. After treatment with BIO (Sigma-Aldrich) as GSK3 inhibitor at the concentration of 0 μM, 0.2 μM, or 0.5 μM, or with […] (Calbiochem, La Jolla, Calif.) as PI3K inhibitor at the concentration of 0 μM, 10 μM, 30 μM, or 50 μM the formation of adult stem cell spheres was observed. The number of adult stem cell spheres was counted after 7 days from culture.

[2] = system: PI3K/AKT/GSK3β; experiment: Western blot for PI3K, AKT, GSK3β phosphorylation in MSC spheres; settings: spheres treated with 0.2 μM BIO, compared to monolayer-incubated adult stem cells
Method: FIG. 6(A) is the result of Western blot analysis conducted after 7 days from sphere culture, wherein MSC spheres were collected by means of 40 μm strainer and then washed two times, and the phosphorylation levels of PI3K and its sequential downstream effectors, AKT and GSK3β were analyzed in monolayer cells, spheres, spheres treated with 0.2 μM BIO, and spheres treated with 30 μM LY294002.
(§1) Western blot analysis for PI3K, AKT, and GSK3β was conducted according to the reference (Park et al., 2009). Adult stem cells incubated as monolayer or spheres were crushed in 50 mM Tris-HCl buffer comprising 1% Triton X-100 to which 1 mM phenylmethylsulfonyl fluoride, 1 mM aprotinin, 1 mM leupeptin, 1 mM antipain, and 0.1 mM sodium orthovanadate were added, 137 mM NaCl, 2 mM EDTA, and 0.1% SDS. The content of protein was determined using DC assay kit (Bio-Rad, USA), and then SDS-PAGE was conducted by loading a given amount of protein on 0-15% polyacrylamide gel. Then protein was transferred to nitrocellulose membrane at 50 V, 350 mA for 5 hours. All of antibodies were used according to the manufacturer's instructions, and the protein bands were identified using enhanced chemiluminescence detection kit (Amersham Pharmacia Biotech, Buckinghamshire, UK).

[3] = system: adult stem cells overexpressing CD49f; experiment: MTT cell proliferation assay in CD49f-overexpressing adult stem cells; settings: 24 and 48 hours
Method: (§2) In order to further confirm whether CD49f genetic expression is dependent on the activation of PI3K/AKT/GSK3 pathway, adult stem cells overexpressing CD49f were treated with LY294002 or BIO for 24 hours and 48 hours.
The proliferation potential of cells was measured by MTT assay analysis based on the ability of living cells to convert tetrazolium salt into purple formazan. Adult stem cells were transduced with either control vector or CD49f expression vector. After 24 hours from transduction, cells were seeded onto 24-well plate, and incubated in medium comprising LY294002 and BIO. After culture for 24 hours and 48 hours, […] of MTT stock solution (5 mg/ml, Sigma) was added to each well, and then further incubated at 37° C. for 4 hours. After removing the supernatant, […] of DMSO was added to each well so that insoluble purple formazan crystals can be dissolved […]. Then, cells were transferred to 96-well microplate and then the absorbance was measured using EL800 microplate reader (BIO-TEK Instruments, Winooski, Vt., U.S.A.) at wavelength of 540 nm. All of measurements were repeated three times.

[4] = system: adult stem cells overexpressing CD49f; experiment: Sphere formation assay in CD49f-overexpressing adult stem cells
Method: (§3) Cells were seeded onto 24-well plate, and then the optical density was measured after 24 hour and 48 hours (*, P<0.05; **, P<0.01). FIG. 9(B) is the result of measuring a size of spheres in the presence or absence of CD49f, LY294002, BIO (*, P<0.05; **, P<0.01). FIG. 9(C) is the result of Western blot analysis for PI3K/AKT/GSK3β. CD49f expression vector was transduced into cells, which were than treated with LY294002 and BIO. Using phospho-specific antibodies for respective proteins the phosphorylation level of protein kinases was identified via Western blotting. 20 μg of protein lysate was loaded onto each well.
as §2

[5] = system: PI3K/AKT/GSK3β; experiment: Western blot for PI3K/AKT/GSK3β in CD49f-overexpressing adult stem cells
Method: as §3
as §1, with “All of antibodies were used according to the manufacturer's instructions, and the protein bands were identified using enhanced chemiluminescence detection kit (Amersham Pharmacia Biotech, Buckinghamshire, UK).” left out

[6] = system: CD49f-overexpressed MSCs; experiment: Osteogenic differentiation of CD49f-overexpressed adult stem cells (Alizarin Red S, RT-PCR)
Method: (§4) Osteogenesis was confirmed through Alizarin Red S staining.
The monolayer-incubated cells (Comparative Example 1) and sphere-derived cells (Example 1) were incubated in DMEM containing 5% FBS, 50 μM L-ascorbate-2-phosphate, 0.1 μM dexamethasone and […] glycerolphosphate to induce differentiation into bone tissue. The cells were stained with Alizarin Red dye specific to calcium, and then the dye was extracted by treating with 100 mM cetylpyridinium chloride (Sigma-Aldrich) for one hour and used for quantitative analysis. The emission of solubilized Alizarin Red S was measured by means of spectrophotometer at 570 nm.
(§5) Subsequently, whether in differentiation of adult stem cells into osteocytes and adipocytes CD49f expression can be regulated by PI3K/AKT/GSK3 pathway was identified. CD49f-overexpressed adult stem cells were treated with LY294002 and BIO, and then incubated in osteocyte and adipocyte media, respectively, to induce differentiation into osteogenic and adipogenic lineages.

[7] = system: CD49f-overexpressed cells; experiment: Adipogenic differentiation of CD49f-overexpressed adult stem cells (Oil Red O, RT-PCR)
Method: as §4
The cell culture of monolayer-incubated cells (Comparative Example 1) and sphere-derived cells (Example 1) was conducted using DMEM containing 5% FBS, 1 μM dexamethasone, 10 μM insulin, 200 μM indomethacin, and 0.5 mM isobutylmethylxanthine to induce differentiation into adipose tissue.
To determine the differentiation degree from fat accumulation present in cells, incubated cells were stained with Oil Red 0, and then Oil Red ° penetrated into cells was extracted with 100% isopropyl alcohol, and quantified with ELISA plate reader (EL800, Bio-Tek Instruments, USA) at OD 500. In addition, using RT-PCR the expression of C/EBP β, AP2, and PPARγ as adipose tissue-specific genes was examined.
as §5

[8] = system: adult stem cells; experiment: Survival of adult stem cells treated with BIO; settings: BIO treatment

## O=C1Nc2cc(Br)ccc2/C1=C1/Nc2ccccc2/C1=N\O [BIO]
[1]
  number of adult stem cell spheres formed: significantly increased
  size of adult stem cell spheres: significantly increased
[2]
  phospho-PI3K and phospho-AKT: increased
[3]
  growth rate / cell proliferation (MTT): higher
[4]
  number of adult stem cell spheres / sphere formation: increased
[5]
  AKT phosphorylation: induced phosphorylation
  GSK3 phosphorylation: induced phosphorylation
[6]; BIO treatment
  propensity of adult stem cells to differentiate into osteocytes: increases
[6]; CD49f-overexpressed MSCs, osteocyte induction
  mineral accumulation (Alizarin Red S staining): further increased
[6]; RT-PCR, CD49f-overexpressed adult stem cells
  mRNA levels of osteocyte-specific markers (BGLAP, VDR, MSX2, OSTEOCALCIN, RUNX2): further increased; also recorded: upregulated
[7]; RT-PCR
  mRNA levels of adipocyte transcription factors (C/EBP β, aP2, PPARγ, LEPTIN): inhibited; also recorded: significantly reduced
[7]; compared to untreated control group
  lipid accumulation (Oil Red O staining): inhibited
[8]
  survival potential of adult stem cells: does not adversely affect
